Measured values from patent publication US20240018125A1, “CYCLIC ISOTHIOUREA DERIVATIVES AS CXCR4 MODULATORS” (ERMIUM THERAPEUTICS, priority 2020, published 2024).
Where a name gives a salt, the structure may show the parent alone.

Tested on: peripheral blood mononuclear cells (PBMCs) from healthy donors
Assay: IFN production by R848-activated PBMCs, quantified with twINNE luciferase reporter cell line
Type: cell-based, human
Conditions: Homo sapiens, PBMC; read-out: IC50 of anti-inflammatory activity (IFN production by activated PBMCs)
Description: The blood from healthy donors was obtained from “Etablissement Français du Sang” (convention #19/EFS/029), Paris, France.
In vitro experiments were performed using human peripheral blood mononuclear cells (PBMCs) isolated by density centrifugation from peripheral blood leukocyte separation medium, lymphoprep (Stemcell Technologies).
PBMCs were cultured in RPMI 1640 (Sigma-Aldrich, MO, USA) containing 10% heat-inactivated fetal bovine serum (Sigma-Aldrich, MO, USA) at 37° C./5% CO2.
The PBMCs used herein were prepared as described in part A “immune cells preparation”, above. PBMCs were seeded at 4.10^6/mL. Cells were pre-treated with different concentration of examples according to the invention. Cells were then stimulated with the TLR7/8 agonist resiquimod—R848 (Sigma-Aldrich, MO, USA) at 5 μg/mL.
To quantify the secretion of functional IFN, a biological assay based on a stable cell line where luciferase reporter gene is controlled by five Interferon-Stimulated Response Elements (twINNE cell line) was used. First, supernatants of R848-stimulated PBMCs (see part B above) were harvested after 24 h of stimulation and frozen at −20° C. for storage. Then, supernatants were dispensed in culture wells of a 96-well plate containing 35.103 twINNE cells per well in Dulbecco's Modified Eagle's Medium supplemented with 10% Foetal Bovine Serum, 100 U/mL Penicillin and 100 μg/mL Streptomycin (1% Pen-Strep) and 1 mM glutamine (Sigma-Aldrich, MO, USA) at 37° C./5% CO2. After 24 h of culture, luciferase activity was determined by adding 60 μL of Bright-Glo reagents (Promega, Wisconsin, USA) to culture wells and measuring bioluminescence with EnSpire Multimode Plate Reader (PerkinElmer, Massachusetts, USA). When stated, for IC50 calculation, dose-response curves fitted using the nonlin fit (variable slope) analysis in GraphPad Prism software (GraphPad Software, Califronia, USA).
IFN production was quantified (as specified in Materials and Methods, part C “quantification of interferon secretion”) using twINNE reporter cell line.

| SMILES | IC50 |
| --- | --- |
| C1=C(CSC2=NCCc3ccccc3N2)N2Cc3ccccc3CN=C2S1 [Example 25, 3-(((4,5-dihydro-1H-benzo[d][1,3]diazepin-2-yl)thio)methyl)-5,10-dihydrobenzo[e]thiazolo[3,2-a][1,3]diazepine dihydrochloride] | ≤ 10 µM |
| C1=C(CSC2=NCC(C3CCCCC3)N2)N2Cc3ccccc3CN=C2S1 (centres unmarked) [Example 26, 3-(((4-cyclohexyl-4,5-dihydro-1H-imidazol-2-yl)thio)methyl)-5,10-dihydrobenzo[e]thiazolo[3,2-a][1,3]diazepine dihydrochloride] | ≤ 10 µM |
| C1=C(CSC2=Nc3ccccc3C(c3ccccc3)N2)N2Cc3ccccc3CN=C2S1 (centres unmarked) [Example 27, 3-(((4-phenyl-3,4-dihydroquinazolin-2-yl)thio)methyl)-5,10-dihydrobenzo[e]thiazolo[3,2-a][1,3]diazepine dihydrochloride] | ≤ 10 µM |
| C1=C(CSC2=NCc3ccccc3N2)N2Cc3cccnc3N=C2S1 [Example 28, 3-(((3,4-dihydroquinazolin-2-yl)thio)methyl)-5H-pyrido[2,3-d]thiazolo[3,2-a]pyrimidine trihydrochloride] | ≤ 10 µM |
| CCCCC1CN=C(SCC2=CSC3=Nc4ccccc4CN23)N1 (centres unmarked) [Example 29, 3-(((5-butyl-4,5-dihydro-1H-imidazol-2-yl)thio)methyl)-5H-thiazolo[2,3-b]quinazoline dihydrochloride] | ≤ 10 µM |
| CC1(c2ccccc2)CN=C(SCC2=CSC3=NCc4ccccc4CN23)N1 (centres unmarked) [Example 30, 3-(((5-methyl-5-phenyl-4,5-dihydro-1H-imidazol-2-yl)thio)methyl)-5,10-dihydrobenzo[e]thiazolo[3,2-a][1,3]diazepine dihydrochloride] | ≤ 10 µM |
| C1=C(CSC2=N[C@@H]3CCCC[C@H]3N2)N2Cc3ccccc3N=C2S1 [Example 32, 3-((((3aR,7aR)-3a,4,5,6,7,7a-hexahydro-1H-benzo[d]imidazol-2-yl)thio)methyl)-5H-thiazolo[2,3-b]quinazoline dihydrochloride] | ≤ 10 µM |
| C1=C(CSC2=NCC(Cc3ccccc3)N2)N2Cc3ccccc3N=C2S1 (centres unmarked) [Example 33, 3-(((5-benzyl-4,5-dihydro-1H-imidazol-2-yl)thio)methyl)-5H-thiazolo[2,3-b]quinazoline dihydrochloride] | ≤ 10 µM |
| COc1ccc(CC2(C)CN=C(SCC3=CSC4=NCc5ccccc5CN34)N2)cc1 (centres unmarked) [Example 34, 3-(((5-(4-methoxybenzyl)-5-methyl-4,5-dihydro-1H-imidazol-2-yl)thio)methyl)-5,10-dihydrobenzo[e]thiazolo[3,2-a][1,3]diazepine dihydrochloride] | ≤ 10 µM |
| C1=C(CSC2=NCc3ccccc3N2)N2CCc3ccccc3N=C2S1 [Example 35, 3-(((3,4-dihydroquinazolin-2-yl)thio)methyl)-5,6-dihydrobenzo[d]thiazolo[3,2-a][1,3]diazepine dihydrochloride] | ≤ 10 µM |
| CN1CCN=C1SCC1=CSC2=Nc3ccccc3CN12 [Example 36, 3-(((1-methyl-4,5-dihydro-1H-imidazol-2-yl)thio)methyl)-5H-thiazolo[2,3-b]quinazoline dihydrochloride] | ≤ 10 µM |
| CCCCN1CCN=C1SCC1=CSC2=NCc3ccccc3CN12 [Example 37, 3-(((1-butyl-4,5-dihydro-1H-imidazol-2-yl)thio)methyl)-5,10-dihydrobenzo[e]thiazolo[3,2-a][1,3]diazepine dihydrochloride] | ≤ 10 µM |
| CC1(c2ccccc2)CN2C(CSC3=NCc4ccccc4N3)=CSC2=N1 (centres unmarked) [Example 38, 3-(((3,4-dihydroquinazolin-2-yl)thio)methyl)-6-methyl-6-phenyl-5,6-dihydroimidazo[2,1-b]thiazole dihydrochloride] | ≤ 10 µM |
| Clc1ccc2c(c1)CN=C(SCC1=CSC3=Nc4ccccc4CN13)N2 [Example 39, 3-(((6-chloro-1,4-dihydroquinazolin-2-yl)thio)methyl)-5H-thiazolo[2,3-b]quinazoline dihydrochloride] | ≤ 10 µM |
